As usually defined, the IC50 is the concentration that gives 50% inhibition.

These results are taken from patent publication EP2809669B1, “FUSED PYRROLEDICARBOXAMIDES AND THEIR USE AS PHARMACEUTICALS” (SANOFI, priority 2012, dated 2013).

For one test, the system named is upper airway. The test can be described thus: Effect on upper airway collapsibility in the anesthetized pig (negative pressure challenge). Conditions: 100 µg/kg intravenous bolus injection, negative pressure -150 mbar. It counts as in vivo. The text has this:
Effect on upper airway collapsibility in the pig Pharmacological efficacy against obstructive apneas was investigated in chloralose-urethane anesthetized pigs (weight range 20 to 35 kg), a large-animal model for obstructive apneas. Negative pressure generated by a negative pressure device was applied with a cannula to the upper part of the trachea for at least three breaths so that the upper airway was exposed to the negative pressure generated by the device. This caused an upper airway collapse as in an obstructive apnea in control animals treated with vehicle only, and in animals of the treatment group before the test compound was administered (baseline situation). Different levels of negative pressure were used to cause a collapse of the upper airway (-50 mbar, -100 mbar and -150 mbar). These negative pressure challenges were repeated several times before vehicle or test compound was given, and at regular intervals after administration of vehicle or test compound. Whether the upper airway was collapsed or open, was judged by airflow measurement and by the tracheal pressure in the cannula inserted into the upper trachea. In case the upper airway was collapsed by the negative pressure, airflow to the negative pressure device was close to zero. As a second parameter tracheal pressure approached the negative pressure generated by the device during upper airway collapse. Test compounds were administered by intravenous bolus injection. After administration of an effective test compound the upper airway was open during the negative pressure challenges, i.e. not collapsed, as indicated by airflow to the negative pressure device and the fact that tracheal pressure now approached atmospheric pressure in the inspiratory phase where upper airway muscles are activated. In vehicle-treated controls upper airway collapse occurred at every negative pressure challenge at -50 mbar, -100 mbar and -150 mbar. In Table 17, the time after administration of compounds of the formula I from the examples above is shown during which no upper airway collapse occurred (time of inhibition of collapsibility) at a negative pressure of -150 mbar. […]

For a further test, the target named is T1, hERG channel (Homo sapiens, UniProt Q12809).
T1 construct: expressed in transfected cells
The test can be described thus: Determination of the effect on the hERG channel in CHO cells (whole-cell patch clamp). Conditions: CHO cells stably expressing hERG, room temperature, read-out: IC50 value [µM] for hERG inhibition. It is filed as cell-based. The protocol: Determination of the effect on the hERG channel in CHO cells
An inhibition of the hERG (human Ether-a-go-go-Related Gene) potassium channel is unwanted because it can lead to dangerous arrhythmias. The effect of compounds of the formula I on the cloned human cardiac hERG channel was evaluated in an in vitro model using a whole-cell patch-clamping technique. CHO (Chinese hamster ovary) cells stably expressing hERG, the potassium channel underlying IKr currents in human hearts, were grown in HAM's F-12 media supplemented with 10 % fetal bovine serum, 1 x penicillin/streptomycin and 500 µg/ml G418 (Invitrogen, Carlsbad, CA, USA) in an atmosphere of 95 % air and 5 % carbon dioxide. Cells used for patch-clamping were seeded on glass or plastic coverslips 12 to 36 hours before use. hERG channel currents were recorded at room temperature using the whole-cell configuration of the patch clamp technique with an Axopatch 200B amplifier (Axon Instruments, Foster City, CA, USA). Briefly, electrodes (3 to 6 MΩ resistance) were fashioned from TW150F glass capillary tubes (World Precision Instruments, Sarasota, FL, USA) and filled with pipette solution (containing 120 mM potassium aspartate, 20 mM potassium chloride, 4 mM adenosine triphosphate disodium salt, 5 mM HEPES, 1 mM magnesium chloride; pH adjusted to 7.2 with potassium hydroxide). hERG currents were initiated by a positive voltage pulse (20 mV) followed by a negative pulse (-40 mV) and were recorded for off-line analyses. Once hERG current from a cell perfused with external solution (containing 130 mM sodium chloride, 5 mM potassium chloride, 2.8 mM sodium acetate, 1 mM magnesium chloride, 10 mM HEPES, 10 mM glucose, 1 mM calcium chloride; pH adjusted to 7.4 with sodium hydroxide) without the test compound, i.e. control solution, was stabilized, the cell was perfused with external solution containing the test compound at specific concentrations. For each concentration from each cell, peak amplitude of the steady-state hERG tail current at -40 mV was measured in picoAmpere (pA). The peak amplitude in pA for each concentration (up to a maximum concentration of 10 µM) was compared with that for the control solution from the same cell and expressed as percent value of the control. From the percent values at multiple concentrations, IC50 values for inhibition of hERG can be determined.
(In general: hERG is a cardiac potassium channel; its block is linked to QT prolongation.)

T1 sequence (Q12809 whole entry): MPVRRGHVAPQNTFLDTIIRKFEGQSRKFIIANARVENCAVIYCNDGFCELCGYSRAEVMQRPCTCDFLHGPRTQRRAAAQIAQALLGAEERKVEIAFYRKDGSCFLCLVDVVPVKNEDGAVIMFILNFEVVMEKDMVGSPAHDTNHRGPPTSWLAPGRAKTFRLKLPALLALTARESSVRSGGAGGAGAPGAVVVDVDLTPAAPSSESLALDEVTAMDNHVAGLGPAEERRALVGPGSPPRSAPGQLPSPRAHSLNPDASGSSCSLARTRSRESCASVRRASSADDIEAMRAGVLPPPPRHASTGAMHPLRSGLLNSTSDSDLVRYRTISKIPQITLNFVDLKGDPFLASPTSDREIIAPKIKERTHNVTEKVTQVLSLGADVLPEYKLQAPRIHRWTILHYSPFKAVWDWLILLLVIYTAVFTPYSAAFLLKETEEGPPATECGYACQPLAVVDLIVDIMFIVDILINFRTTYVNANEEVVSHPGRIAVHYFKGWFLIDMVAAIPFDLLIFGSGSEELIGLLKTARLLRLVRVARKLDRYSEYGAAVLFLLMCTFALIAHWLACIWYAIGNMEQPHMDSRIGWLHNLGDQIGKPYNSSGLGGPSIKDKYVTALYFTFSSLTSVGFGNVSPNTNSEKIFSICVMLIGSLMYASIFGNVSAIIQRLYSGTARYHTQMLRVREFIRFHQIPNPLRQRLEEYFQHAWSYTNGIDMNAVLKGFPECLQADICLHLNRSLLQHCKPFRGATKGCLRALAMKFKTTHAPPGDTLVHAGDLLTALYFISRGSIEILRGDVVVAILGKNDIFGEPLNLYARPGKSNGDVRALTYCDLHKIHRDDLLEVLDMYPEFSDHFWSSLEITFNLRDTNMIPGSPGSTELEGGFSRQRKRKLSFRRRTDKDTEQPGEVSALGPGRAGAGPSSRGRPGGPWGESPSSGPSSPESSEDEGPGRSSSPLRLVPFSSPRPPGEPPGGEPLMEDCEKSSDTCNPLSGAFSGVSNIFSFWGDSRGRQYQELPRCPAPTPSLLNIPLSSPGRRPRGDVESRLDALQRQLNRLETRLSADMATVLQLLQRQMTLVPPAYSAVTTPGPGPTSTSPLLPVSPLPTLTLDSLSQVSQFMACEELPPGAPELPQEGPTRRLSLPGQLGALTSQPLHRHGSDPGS

Turning to `CCOC(=O)[C@H](C)N(C)C(=O)c1cc(C(=O)N[C@H](CC)c2ccccc2)c2n1CCOC2` [16l, (S)-2-{Methyl-[8-((R)-1-phenyl-propylcarbamoyl)-3,4-dihydro-1H-pyrrolo[2,1-c][1,4]oxazine-6-carbonyl]-amino}-propionic acid ethyl ester], the “Time of inhibition of collapsibility (at -150 mbar)” value in the test with upper airway is “for >120 min”. For the same molecule, the IC50 at hERG channel is more than 10 µM.
The like results for `CC[C@@H](NC(=O)c1cc(C(=O)N2CCC[C@@H]2C(=O)OC(C)C)n2c1COCC2)c1ccccc1` [16n, (R)-1-[8-((R)-1-Phenyl-propylcarbamoyl)-3,4-dihydro-1H-pyrrolo[2,1-c][1,4]oxazine-6-carbonyl]-pyrrolidine-2-carboxylic acid isopropyl ester] were, in that order, “for 120 min” and more than 10 µM.
